In general, IC50 refers to the concentration needed to halve the response being measured.

The results in this text go back to patent US11203591B2, “Substituted 6-azabenzimidazole compounds” (Gilead Sciences, Inc., priority 2018, dated 2021).

human HPK1 (MAP4K1), sequence (Q92918 17-274): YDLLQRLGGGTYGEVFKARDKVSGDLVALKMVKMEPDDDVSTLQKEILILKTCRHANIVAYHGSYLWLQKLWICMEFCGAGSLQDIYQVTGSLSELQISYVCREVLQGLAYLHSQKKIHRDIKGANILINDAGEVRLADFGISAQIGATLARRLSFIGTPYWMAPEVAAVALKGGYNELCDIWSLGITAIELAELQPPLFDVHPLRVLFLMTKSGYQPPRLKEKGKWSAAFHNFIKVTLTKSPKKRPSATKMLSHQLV

For this test, the target named is human HPK1 (MAP4K1) (Homo sapiens (Human), UniProt Q92918). As to the kind of experiment: HPK1 IC50 Assay (TR-FRET peptide phosphorylation). It is filed as biochemical. As to conditions: recombinant HPK1 kinase domain 0.15 nM, 10 μM ATP, 1 μM STK S1 peptide; geometric mean of multiple experiments. In outline:
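Pre-activated, dually phosphorylated baculovirus-expressed HPK1 kinase domain (0.15 nM) preincubated 15 min with compound, then reacted 3 h at 25° C with 10 μM ATP and 1 μM STK S1 peptide in BES pH 7.0 buffer. Phosphopeptide read by TR-FRET (665/620 nm); four-parameter fit, geometric-mean IC50.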
(In general: In TR-FRET formats the signal depends on donor and acceptor labels being close together.)
On to `Cc1c(C(=O)NC2(C(F)F)CC2)cc(Nc2nc(-c3cnc4c(c3)N(C3CC(C)(N5CCC6C[C@H]5CO6)C3)C(=O)C4(C)C)cc3ncn(C(C)C)c23)c(F)c1F` (stereo partly drawn) [Example 192, 5-((6-(1-((1s,3s)-3-(6-oxa-2-azabicyclo[3.2.1]octan-2-yl)-3-methylcyclobutyl)-3,3-dimethyl-2-oxo-2,3-dihydro-1H-pyrrolo[3,2-b]pyridin-6-yl)-3-isopropyl-3H-imidazo[4,5-c]pyridin-4-yl)amino)-N-(1-(difluoromethyl)cyclopropyl)-3,4-difluoro-2-methylbenzamide], for which the IC50 was found to be 0.1 nM. Next, `Cc1c(C(=O)NC2(C(F)F)CC2)cc(Nc2nc(-c3cnc4c(c3)N([C@H]3C[C@@](C)(N5CCOC6(CC6)C5)C3)C(=O)C4(C)C)cc3ncn(C(C)C)c23)c(F)c1F` [Example 193, N-(1-(Difluoromethyl)cyclopropyl)-5-((6-(3,3-dimethyl-1-((1s,3s)-3-methyl-3-(4-oxa-7-azaspiro[2.5]octan-7-yl)cyclobutyl)-2-oxo-2,3-dihydro-1H-pyrrolo[3,2-b]pyridin-6-yl)-3-isopropyl-3H-imidazo[4,5-c]pyridin-4-yl)amino)-3,4-difluoro-2-methylbenzamide]: 0.2 nM; `Cc1c(C(=O)NC2(C(F)F)CC2)cc(Nc2nc(-c3cnc4c(c3)N([C@H]3C[C@@](C)(N5CCCC6(CC6)C5)C3)C(=O)C4(C)C)cc3ncn(C(C)C)c23)c(F)c1F` [Example 194, N-(1-(Difluoromethyl)cyclopropyl)-5-((6-(3,3-dimethyl-1-((1s,3s)-3-methyl-3-(5-azaspiro[2.5]octan-5-yl)cyclobutyl)-2-oxo-2,3-dihydro-1H-pyrrolo[3,2-b]pyridin-6-yl)-3-isopropyl-3H-imidazo[4,5-c]pyridin-4-yl)amino)-3,4-difluoro-2-methylbenzamide]: 0.06 nM; `Cc1c(C(=O)NC2(C(F)F)CC2)cc(Nc2nc(-c3cc4c(nc3F)C(C)(C)C(=O)N4[C@H]3C[C@@](C)(N4CCCCC4)C3)cc3ncn(C(C)C)c23)c(F)c1F` [Example 195, N-(1-(Difluoromethyl)cyclopropyl)-3,4-difluoro-5-((6-(5-fluoro-3,3-dimethyl-1-((1s,3s)-3-methyl-3-(piperidin-1-yl)cyclobutyl)-2-oxo-2,3-dihydro-1H-pyrrolo[3,2-b]pyridin-6-yl)-3-isopropyl-3H-imidazo[4,5-c]pyridin-4-yl)amino)-2-methylbenzamide]: 0.07 nM. As to `Cc1c(C(=O)NC2(C(F)F)CC2)cc(Nc2nc(-c3cnc4c(c3)N([C@H]3C[C@@](C)(N5CCC[C@@H](F)C5)C3)C(=O)C4(C)C)cc3ncn(C(C)C)c23)c(F)c1F` [Example 196, N-(1-(Difluoromethyl)cyclopropyl)-3,4-difluoro-5-((6-(1-((1S,3s)-3-((R)-3-fluoropiperidin-1-yl)-3-methylcyclobutyl)-3,3-dimethyl-2-oxo-2,3-dihydro-1H-pyrrolo[3,2-b]pyridin-6-yl)-3-isopropyl-3H-imidazo[4,5-c]pyridin-4-yl)amino)-2-methylbenzamide], the IC50 came to 0.1 nM. For the compound `Cc1c(C(=O)NC2(C(F)F)CC2)cc(Nc2nc(-c3cnc4c(c3)N([C@H]3C[C@@](C)(N5CCC(F)CC5)C3)C(=O)C4(C)C)cc3ncn(C(C)C)c23)c(F)c1F` [Example 197, N-(1-(Difluoromethyl)cyclopropyl)-3,4-difluoro-5-((6-(1-((1s,3s)-3-(4-fluoropiperidin-1-yl)-3-methylcyclobutyl)-3,3-dimethyl-2-oxo-2,3-dihydro-1H-pyrrolo[3,2-b]pyridin-6-yl)-3-isopropyl-3H-imidazo[4,5-c]pyridin-4-yl)amino)-2-methylbenzamide], the IC50 turned out to be 0.1 nM. `CC(C)n1cnc2cc(-c3cnc4c(c3)N([C@H]3C[C@@](C)(N5CCCOCC5)C3)C(=O)C4(C)C)nc(Nc3cc(C(=O)NC4(C(F)F)CC4)c(Cl)c(F)c3F)c21` [Example 198, 2-Chloro-N-(1-(difluoromethyl)cyclopropyl)-5-((6-(3,3-dimethyl-1-((1s,3s)-3-methyl-3-(1,4-oxazepan-4-yl)cyclobutyl)-2-oxo-2,3-dihydro-1H-pyrrolo[3,2-b]pyridin-6-yl)-3-isopropyl-3H-imidazo[4,5-c]pyridin-4-yl)amino)-3,4-difluorobenzamide]: the half-maximal inhibitory concentration (IC50) was 0.01 nM. Next, `CC(C)n1cnc2cc(-c3cnc4c(c3)N([C@H]3C[C@@](C)(N5CCOCC5)C3)C(=O)C4(C)C)nc(Nc3cc(C(=O)NC4(C(F)F)CC4)c(Cl)c(F)c3F)c21` [Example 199, 2-Chloro-N-(1-(difluoromethyl)cyclopropyl)-5-((6-(3,3-dimethyl-1-((1s,3s)-3-methyl-3-morpholinocyclobutyl)-2-oxo-2,3-dihydro-1H-pyrrolo[3,2-b]pyridin-6-yl)-3-isopropyl-3H-imidazo[4,5-c]pyridin-4-yl)amino)-3,4-difluorobenzamide]: 0.1 nM; `CC(C)n1cnc2cc(-c3cnc4c(c3)N([C@H]3C[C@@](C)(N5CC[C@@H](F)C5)C3)C(=O)C4(C)C)nc(Nc3cc(C(=O)NC4(C(F)F)CC4)c(Cl)c(F)c3F)c21` [Example 200, 2-Chloro-N-(1-(difluoromethyl)cyclopropyl)-3,4-difluoro-5-((6-(1-((1S,3s)-3-((R)-3-fluoropyrrolidin-1-yl)-3-methylcyclobutyl)-3,3-dimethyl-2-oxo-2,3-dihydro-1H-pyrrolo[3,2-b]pyridin-6-yl)-3-isopropyl-3H-imidazo[4,5-c]pyridin-4-yl)amino)benzamide]: 0.1 nM; `CC(C)n1cnc2cc(-c3cnc4c(c3)N([C@H]3C[C@@](C)(N5CCC[C@@H](F)C5)C3)C(=O)C4(C)C)nc(Nc3cc(C(=O)NC4(C(F)F)CC4)c(Cl)c(F)c3F)c21` [Example 201, 2-Chloro-N-(1-(difluoromethyl)cyclopropyl)-3,4-difluoro-5-((6-(1-((1S,3s)-3-((R)-3-fluoropiperidin-1-yl)-3-methylcyclobutyl)-3,3-dimethyl-2-oxo-2,3-dihydro-1H-pyrrolo[3,2-b]pyridin-6-yl)-3-isopropyl-3H-imidazo[4,5-c]pyridin-4-yl)amino)benzamide]: 0.2 nM.

As to `CC(C)n1cnc2cc(-c3cnc4c(c3)N([C@H]3C[C@@](C)(N5CCCCC5)C3)C(=O)C4(C)C)nc(Nc3cc(C(=O)NC4(C(F)F)CC4)c(Cl)cc3F)c21` [Example 202, 2-Chloro-N-(1-(difluoromethyl)cyclopropyl)-5-((6-(3,3-dimethyl-1-((1s,3s)-3-methyl-3-(piperidin-1-yl)cyclobutyl)-2-oxo-2,3-dihydro-1H-pyrrolo[3,2-b]pyridin-6-yl)-3-isopropyl-3H-imidazo[4,5-c]pyridin-4-yl)amino)-4-fluorobenzamide], the IC50 turned out to be 0.1 nM. Regarding `CC(C)n1cnc2cc(-c3cnc4c(c3)N([C@H]3C[C@@](C)(N5CCCC6(CC6)C5)C3)C(=O)C4(C)C)nc(Nc3cc(C(=O)NC4(C(F)F)CC4)c(Cl)c(F)c3F)c21` [Example 203, 2-Chloro-N-(1-(difluoromethyl)cyclopropyl)-5-((6-(3,3-dimethyl-1-((1s,3s)-3-methyl-3-(5-azaspiro[2.5]octan-5-yl)cyclobutyl)-2-oxo-2,3-dihydro-1H-pyrrolo[3,2-b]pyridin-6-yl)-3-isopropyl-3H-imidazo[4,5-c]pyridin-4-yl)amino)-3,4-difluorobenzamide], the half-maximal inhibitory concentration (IC50) worked out at 0.07 nM.
